Target: T1, CCR4 receptor (Homo sapiens, UniProt P51679)
T1 construct: beta-galactosidase enzyme-fragment tag (receptor modification for beta-arrestin complementation); expressed in transfected cells; host or cells: CHO-K1
T1 sequence (P51679 1-360): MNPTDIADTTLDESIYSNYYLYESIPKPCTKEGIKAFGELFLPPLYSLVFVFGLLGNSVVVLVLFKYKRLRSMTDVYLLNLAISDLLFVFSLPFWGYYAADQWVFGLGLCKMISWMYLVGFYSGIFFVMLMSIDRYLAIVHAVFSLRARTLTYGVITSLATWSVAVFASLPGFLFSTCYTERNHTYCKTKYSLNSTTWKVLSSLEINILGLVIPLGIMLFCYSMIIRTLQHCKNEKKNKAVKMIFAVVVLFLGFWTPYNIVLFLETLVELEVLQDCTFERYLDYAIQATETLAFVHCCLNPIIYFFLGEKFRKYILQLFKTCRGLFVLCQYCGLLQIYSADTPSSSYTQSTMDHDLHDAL
Experiment: CCR4 antagonist activity in beta-arrestin cellular assay (PathHunter chemiluminescence)
Type: cell-based
Details: CHO-K1 cells expressing CCR4; 30 min pre-incubation; CCL22 challenge at EC80 (15 nM) for 90 minutes; read-out: Potency (CCR4 antagonist IC50 in the β-arrestin assay)
Method: CCR4 Antagonistic Activity was assessed in Beta-Arrestin Cellular Assay. Compounds were assessed in CHO-K1 cells expressing the CCR4 receptor modified to enable β-glactosidase detection of p-arrestin agonist activity stimulated by CCL22 in a chemiluminescence assay. Cells were seeded in a total volume of 20 μL into white walled, 384-well microplates and incubated at 37° C. prior to testing. Cells were pre-incubated with test compound for 30 min at 37° C. followed by agonist challenge with CCL22 at the EC80 concentration (15 nM) for 90 minutes. Assay signal was generated through a single addition of 12.5 or 15 μL (50% v/v) of PathHunter Detection reagent cocktail, followed by a one hour incubation at room temperature. Microplates were read following signal generation with a PerkinElmer Envision™ instrument for chemiluminescent signal detection. Antagonist activity was analyzed using CBIS data analysis suite (ChemInnovation, CA). Antagonist activity was characterized as percentage inhibition calculated using the following formula: % Inhibition=100%×(1−(mean RLU of test sample−mean RLU of vehicle control)/(mean RLU of EC80 control−mean RLU of vehicle control)).
An IC50 of >500 nM is designated as Potency C, an IC50 of between 500 nM and 200 nM is designated as Potency B and an IC50 of <200 nM is designated as Potency A.

Row | SMILES | IC50 [nM]
1 | C[C@@H](Nc1nc(N2CCC(C3CCCCN3)C2)ncc1Cl)c1ccc(Cl)cc1Cl (mixture of isomers) [Example 8, 5-chloro-N—((R)-1-(2,4-dichlorophenyl)ethyl)-2-(3-(piperidin-2-yl)pyrrolidin-1-yl)pyrimidin-4-amine] | < 200
2 | Cc1nc(N2CCC(C3CCCCN3)C2)nc(N[C@H](C)c2ccc(Cl)cc2Cl)c1Cl (mixture of isomers) [Example 10, 5-chloro-N—((R)-1-(2,4-dichlorophenyl)ethyl)-6-methyl-2-(3-(piperidin-2-yl)pyrrolidin-1-yl)pyrimidin-4-amine] | 200 to 500
3 | C[C@@H](Nc1nc(N2CCC(C3CCN(C4CC(C)(C(=O)O)C4)C3)C2)ncc1Cl)c1ccc(Cl)cc1Cl (stereo partly drawn) [Example 7, 3-(1′-(5-chloro-4-(((R)-1-(2,4-dichlorophenyl)ethyl)amino)pyrimidin-2-yl)-[3,3′-bipyrrolidin]-1-yl)-1-methylcyclobutane-1-carboxylic Acid] | 200 to 500
4 | C[C@@H](Nc1nc(N2CCC(C3CCCCN3C3CC(C)(C(=O)O)C3)C2)ncc1Cl)c1ccc(Cl)cc1Cl (stereo partly drawn) [Example 9, 3-(2-(1-(5-chloro-4-(((R)-1-(2,4-dichlorophenyl)ethyl)amino)pyrimidin-2-yl)pyrrolidin-3-yl)piperidin-1-yl)-1-methylcyclobutane-1-carboxylic Acid] | < 200
5 | C[C@@H](Nc1nc(N2CCC(C3CCCN(C4CC(C(=O)O)C4)C3)CC2)ncc1Cl)c1ccc(Cl)cc1Cl (stereo partly drawn) [Example 12, 3-(1′-(5-chloro-4-(((R)-1-(2,4-dichlorophenyl)ethyl)amino)pyrimidin-2-yl)-[3,4′-bipiperidin]-1-yl)cyclobutane-1-carboxylic Acid] | < 200
6 | CC(C(=O)O)N1CCCC(C2CCN(c3ncc(Cl)c(N[C@H](C)c4ccc(Cl)cc4Cl)n3)CC2)C1 (stereo partly drawn) [Example 15, 2-(1′-(5-chloro-4-(((R)-1-(2,4-dichlorophenyl)ethyl)amino)pyrimidin-2-yl)-[3,4′-bipiperidin]-1-yl)propanoic Acid] | < 200
7 | C[C@@H](Nc1nc(N2CCC(C3CCCN(CCC(=O)O)C3)CC2)ncc1Cl)c1ccc(Cl)cc1Cl (stereo partly drawn) [Example 16, 3-(1′-(5-chloro-4-(((R)-1-(2,4-dichlorophenyl)ethyl)amino)pyrimidin-2-yl)-[3,4′-bipiperidin]-1-yl)propanoic Acid] | < 200
8 | Cc1nc(N2CCC(C3CCCN(CCC(=O)O)C3)CC2)nc(N[C@H](C)c2ccc(Cl)cc2Cl)c1Cl (stereo partly drawn) [Example 17, 3-(1′-(5-chloro-4-(((R)-1-(2,4-dichlorophenyl)ethyl)amino)-6-methylpyrimidin-2-yl)-[3,4′-bipiperidin]-1-yl)propanoic Acid] | < 200

Other lines, results leading:

Row | IC50 [nM] | SMILES
9 | > 500 | Cc1nc(N2CCC(C3CN(C4CC(C)(C(=O)O)C4)C3)C2)nc(N[C@H](C)c2ccc(Cl)cc2Cl)c1Cl (mixture of isomers) [Example 3, 3-(3-(1-(5-chloro-4-(((R)-1-(2,4-dichlorophenyl)ethyl)amino)-6-methylpyrimidin-2-yl)pyrrolidin-3-yl)azetidin-1-yl)-1-methylcyclobutane-1-carboxylic Acid]
10 | < 200 | C[C@@H](Nc1nc(N2CCC(C3CCCN(C4CC(C)(C(=O)O)C4)C3)CC2)ncc1Cl)c1ccc(Cl)cc1Cl (mixture of isomers) [Example 6, 3-(1′-(5-chloro-4-(((R)-1-(2,4-dichlorophenyl)ethyl)amino)pyrimidin-2-yl)-[3,4′-bipiperidin]-1-yl)-1-methylcyclobutane-1-carboxylic Acid]
11 | < 200 | Cc1nc(N2CCC(C3CCCN(C4CC(C)(C(=O)O)C4)C3)C2)nc(N[C@H](C)c2ccc(Cl)cc2Cl)c1Cl (stereo partly drawn) [Example 1, 3-(3-(1-(5-chloro-4-(((R)-1-(2,4-dichlorophenyl)ethyl)amino)-6-methylpyrimidin-2-yl)pyrrolidin-3-yl)piperidin-1-yl)-1-methylcyclobutane-1-carboxylic Acid]
12 | < 200 | Cc1nc(N2CCC(C3CCCN(C4CC(C)(C(=O)O)C4)C3)CC2)nc(N[C@H](C)c2ccc(Cl)cc2Cl)c1Cl (stereo partly drawn) [Example 2, 3-(1′-(5-chloro-4-(((R)-1-(2,4-dichlorophenyl)ethyl)amino)-6-methylpyrimidin-2-yl)-[3,4′-bipiperidin]-1-yl)-1-methylcyclobutane-1-carboxylic Acid]
13 | 200 to 500 | Cc1nc(N2CCC(C3CCN(C4CC(C)(C(=O)O)C4)C3)C2)nc(N[C@H](C)c2ccc(Cl)cc2Cl)c1Cl (stereo partly drawn) [Example 4, 3-(1′-(5-chloro-4-(((R)-1-(2,4-dichlorophenyl)ethyl)amino)-6-methylpyrimidin-2-yl)-[3,3′-bipyrrolidin]-1-yl)-1-methylcyclobutane-1-carboxylic Acid]
14 | < 200 | C[C@@H](Nc1nc(N2CCC(C3CCCN(C4CC(C)(C(=O)O)C4)C3)C2)ncc1Cl)c1ccc(Cl)cc1Cl (stereo partly drawn) [Example 5, 3-(3-(1-(5-chloro-4-(((R)-1-(2,4-dichlorophenyl)ethyl)amino)pyrimidin-2-yl)pyrrolidin-3-yl)piperidin-1-yl)-1-methylcyclobutane-1-carboxylic Acid]
15 | 200 to 500 | Cc1nc(N2CCC(C3CCCCN3C3CC(C)(C(=O)O)C3)C2)nc(N[C@H](C)c2ccc(Cl)cc2Cl)c1Cl (stereo partly drawn) [Example 11, 3-(2-(1-(5-chloro-4-(((R)-1-(2,4-dichlorophenyl)ethyl)amino)-6-methylpyrimidin-2-yl)pyrrolidin-3-yl)piperidin-1-yl)-1-methylcyclobutane-1-carboxylic Acid]
16 | < 200 | Cc1nc(N2CCC(C3CCCN(C4CC(C(=O)O)C4)C3)CC2)nc(N[C@H](C)c2ccc(Cl)cc2Cl)c1Cl (stereo partly drawn) [Example 13, 3-(1′-(5-chloro-4-(((R)-1-(2,4-dichlorophenyl)ethyl)amino)-6-methylpyrimidin-2-yl)-[3,4′-bipiperidin]-1-yl)cyclobutane-1-carboxylic Acid]
17 | < 200 | Cc1nc(N2CCC(C3CCCN(C(C)C(=O)O)C3)CC2)nc(N[C@H](C)c2ccc(Cl)cc2Cl)c1Cl (stereo partly drawn) [Example 14, 2-(1′-(5-chloro-4-(((R)-1-(2,4-dichlorophenyl)ethyl)amino)-6-methylpyrimidin-2-yl)-[3,4′-bipiperidin]-1-yl)propanoic Acid]

From patent publication US12240837B2, “Chemokine receptor modulators and uses thereof” (RAPT THERAPEUTICS, INC., priority 2022, dated 2025)
